Experimental data taken from ChEMBL document CHEMBL5579796, “Inhibition of dengue viruses by N-methylcytisine thio derivatives through targeting viral envelope protein and NS2B-NS3 protease” (Bioorg Med Chem Lett, 2024).
Activity calls are given as the source filed them. The calls are words filed in the database; no cut-off is given here.

Assays:
dengue virus type 2 [1] = experiment: Antiviral activity against DENV-2 16,681 infected in Vero E6 cells assessed as reduction in viral infection by measuring NS4B positive cells at 10 uM incubated for 4 days by immunofluorescence assay; format: functional; set-up: scale not given: the % may be the effect or the level left; conditions: time 4 day
dengue virus type 2 [2] = experiment: Antiviral activity against DENV-2 16,681 infected in Vero E6 cells assessed as reduction in virus induced cytopathic effect at 10 uM incubated for 4 days by inverted microscopic analysis; format: functional, organism-based; conditions: time 4.0 day
dengue virus type 2 [3] = experiment: Antiviral activity against DENV-2 16,681 infected in Vero E6 cells assessed as reduction in viral infectivity by measuring NS4B-positive cells pretreated with compound for 1 hr followed by viral infection and washout measured after 96 hrs by immunofluorescence analysis; format: functional, organism-based; conditions: Dengue virus, 16,681, Vero C1008
Genome polyprotein = Genome polyprotein (dengue virus type 2, UniProt P29990); experiment: Inhibition of DENV-2 NS2B/NS3 protease expressed in HEK293 cells cotransfected with CFP-trrg-YFP incubated for 24 hrs by FRET assay; format: cell-based
dengue virus type 2 [4] = experiment: Antiviral activity against DENV-2 16,681 infected in A549 cells assessed as reduction in virus induced cytopathic effect measured after 96 hrs by inverted microscopic analysis; format: functional, organism-based; conditions: Dengue virus, 16,681, A549, 96 h
dengue virus type 2 [5] = experiment: Antiviral activity against DENV-2 16,681 infected in Vero E6 cells assessed as reduction in virus induced cytopathic effect measured after 96 hrs by inverted microscopic analysis; format: functional, organism-based; conditions: Dengue virus, 16,681, Vero C1008, 96 h
[6] = Cytotoxicity against african green monkey Vero E6 cells by MTT assay; format: toxicity, cell-based, Vero C1008; conditions: chlorocebus sabaeus
dengue virus type 2 [7] = experiment: Antiviral activity against DENV-2 16,681 infected in Vero E6 cells assessed as reduction in viral infectivity by measuring NS4B-positive cells incubated for 1 hr followed by washout and subsequent culturing; format: functional, organism-based; conditions: Dengue virus, 16,681, Vero C1008, 1 h
[8] = Selectivity index, ratio of CC50 for human A549 cells to EC50 for antiviral activity against DENV-2 16,681 infected in A549 cells; format: toxicity, cell-based; conditions: read-out: Ratio CC50/EC50
dengue virus type 2 [9] = experiment: Antiviral activity against DENV-2 16,681 infected in Vero E6 cells assessed as reduction in viral infectivity by measuring NS4B-positive cells at 10 uM pretreated with compound for 1 hr followed by viral infection and washout measured after 96 hrs by immunofluorescence analysis; format: functional; set-up: scale not given: the % may be the effect or the level left
[10] = Selectivity index, ratio of CC50 for african green monkey Vero E6 cells to EC50 for antiviral activity against DENV-2 16,681 infected in Vero E6 cells; format: toxicity, cell-based; conditions: read-out: Ratio CC50/EC50
[11] = Cytotoxicity against human A549 cells by MTT assay; format: toxicity, cell-based
dengue virus type 2 [12] = experiment: Antiviral activity against DENV-2 16,681 infected in Vero E6 cells assessed as reduction in viral infectivity by measuring NS4B-positive cells at 1 uM pretreated with virus for 1 hr followed by compound addition for 1 hr prior to washout and measured after 96 hrs by immunofluorescence analysis; format: functional; set-up: scale not given: the % may be the effect or the level left
dengue virus type 2 [13] = experiment: Antiviral activity against DENV-2 16,681 infected in Vero E6 cells assessed as reduction in viral infectivity by measuring NS4B-positive cells pretreated with virus for 1 hr followed by compound addition for 1 hr prior to washout and measured after 96 hrs by immunofluorescence analysis; format: functional, organism-based; conditions: Dengue virus, 16,681, Vero C1008
dengue virus type 2 [14] = experiment: Antiviral activity against DENV-2 16,681 infected in Vero E6 cells assessed as reduction in viral infectivity by measuring NS4B-positive cells at 0.1 uM incubated for 1 hr followed by washout and measured after 96 hrs by immunofluorescence analysis; format: functional; set-up: scale not given: the % may be the effect or the level left
dengue virus type 2 [15] = experiment: Antiviral activity against DENV-2 16,681 infected in Vero E6 cells assessed as reduction in viral infectivity by measuring NS4B-positive cells incubated for 1 hr followed by washout and measured after 96 hrs by immunofluorescence analysis; format: functional, organism-based; conditions: Dengue virus, 16,681, Vero C1008

SMILES	Activity (dengue virus type 2 [1]) [%]	Activity (dengue virus type 2 [2])	EC50 (dengue virus type 2 [3]) [nM]	IC50 (Genome polyprotein) [nM]	EC50 (dengue virus type 2 [4]) [nM]	EC50 (dengue virus type 2 [5]) [nM]	CC50 [6] [nM]	EC50 (dengue virus type 2 [7]) [nM]	selectivity ratio [8]	Activity (dengue virus type 2 [9]) [%]	selectivity ratio [10]	CC50 [11] [nM]	Activity (dengue virus type 2 [12])	EC50 (dengue virus type 2 [13]) [nM]	Activity (dengue virus type 2 [14]) [%]	EC50 (dengue virus type 2 [15]) [nM]
CN1C[C@H]2C[C@H](Cn3c2cccc3=O)C1=S	64.9	Active	–	–	–	–	–	–	–	–	–	–	–	–	–	–
CN1C[C@H]2C[C@H](Cn3c2cccc3=S)C1=S	60	Active	–	–	–	–	–	–	–	–	–	–	–	–	–	–
CN1C[C@@H]2C[C@H](C1=S)c1cccc(=S)n1C2	61	Active	–	–	–	–	–	–	–	–	–	–	–	–	–	–
CN1C[C@@H]2C[C@H](C1=S)c1cccc(=O)n1C2	95	Active	> 10000	2760	2	5	> 50000	100	> 25000	<40	> 10000	> 50000	>60%	670	>50	20
CN1C[C@@H]2C[C@H](C1)c1cccc(=S)n1C2	88.7	Active	> 10000	13500	2110	940	> 50000	1020	> 23.7	<40	> 53.2	> 50000	inactive	4080	>50	110
